Test results: patent US20070208166A1, “Tao Kinase Modulators And Method Of Use” (Exelixis, Inc., priority 2003, published 2007)

Experiments:
Assay type in all cases: biochemical
[1] = molecular target: T1, KIAA 1361 (baculovirus expressed human KIAA 1361 kinase domain 2-322) (Homo sapiens, UniProt Q7L7X3); test: KIAA 1361 Luciferase-Coupled Chemiluminescent Kinase assay (LCCA); settings: 2 μM ATP, 10 μM MBP, 12 nM KIAA 1361, 2 hours; read-out: KIAA1361 inhibition IC50
T1 construct: human KIAA 1361 kinase domain 2-322; made in house
T1 sequence (Q7L7X3 2-322): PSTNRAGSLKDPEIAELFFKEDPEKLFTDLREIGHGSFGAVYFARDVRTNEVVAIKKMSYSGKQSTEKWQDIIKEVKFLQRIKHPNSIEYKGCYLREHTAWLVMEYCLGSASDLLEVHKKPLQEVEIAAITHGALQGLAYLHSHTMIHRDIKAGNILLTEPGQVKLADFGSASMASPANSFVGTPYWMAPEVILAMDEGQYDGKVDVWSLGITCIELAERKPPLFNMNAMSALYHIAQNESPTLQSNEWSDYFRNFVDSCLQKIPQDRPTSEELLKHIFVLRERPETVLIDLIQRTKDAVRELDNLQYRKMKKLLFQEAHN
Procedure, shortened: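 KIAA 1361 kinase domain 2-322 (baculovirus, 12 nM) with 2 μM ATP and 10 μM MBP in Tris pH 7.5, MgCl2, MnCl2; 2 h, ambient. Remaining ATP read by luciferase chemiluminescence; 10 concentrations, IC50 by four-parameter fit.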

[2] = molecular target: T2, JIK (Homo sapiens, UniProt Q9H2K8); test: JIK Luciferase-Coupled Chemiluminescent Kinase assay (LCCA); settings: 2 μM ATP, 10 μM MBP, 6 nM JIK, 2 hours; read-out: JIK inhibition IC50
T2 construct: 6 nM JIK (baculovirus expressed human KIAA 1361 kinase domain2-318); made in house
T2 sequence (Q9H2K8 2-318): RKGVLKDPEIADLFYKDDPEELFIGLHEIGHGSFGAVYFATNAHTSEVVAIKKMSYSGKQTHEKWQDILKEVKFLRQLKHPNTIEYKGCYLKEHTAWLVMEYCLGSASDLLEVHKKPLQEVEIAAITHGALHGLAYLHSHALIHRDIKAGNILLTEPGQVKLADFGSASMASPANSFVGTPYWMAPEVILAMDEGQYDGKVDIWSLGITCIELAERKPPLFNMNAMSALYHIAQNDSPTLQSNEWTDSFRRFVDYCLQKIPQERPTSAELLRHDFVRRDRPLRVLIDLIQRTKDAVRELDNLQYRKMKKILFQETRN
Procedure, shortened: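 Baculovirus-expressed human KIAA 1361 kinase domain 2-318 at 6 nM, with 10 μM MBP and 2 μM ATP in Tris pH 7.5 with Mg/Mn, ran 2 h at ambient temperature. Remaining ATP was read by luciferase chemiluminescence. IC50 comes from a 10-concentration four-parameter fit.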

[3] = molecular target: T3, TAO (Homo sapiens, UniProt Q9UL54); test: TAO Luciferase-Coupled Chemiluminescent Kinase assay (LCCA); settings: 2 μM ATP, 10 μM MBP, 12 nM TAO, 2 hours; read-out: TAO inhibition IC50
T3 sequence (Q9UL54 1-1235): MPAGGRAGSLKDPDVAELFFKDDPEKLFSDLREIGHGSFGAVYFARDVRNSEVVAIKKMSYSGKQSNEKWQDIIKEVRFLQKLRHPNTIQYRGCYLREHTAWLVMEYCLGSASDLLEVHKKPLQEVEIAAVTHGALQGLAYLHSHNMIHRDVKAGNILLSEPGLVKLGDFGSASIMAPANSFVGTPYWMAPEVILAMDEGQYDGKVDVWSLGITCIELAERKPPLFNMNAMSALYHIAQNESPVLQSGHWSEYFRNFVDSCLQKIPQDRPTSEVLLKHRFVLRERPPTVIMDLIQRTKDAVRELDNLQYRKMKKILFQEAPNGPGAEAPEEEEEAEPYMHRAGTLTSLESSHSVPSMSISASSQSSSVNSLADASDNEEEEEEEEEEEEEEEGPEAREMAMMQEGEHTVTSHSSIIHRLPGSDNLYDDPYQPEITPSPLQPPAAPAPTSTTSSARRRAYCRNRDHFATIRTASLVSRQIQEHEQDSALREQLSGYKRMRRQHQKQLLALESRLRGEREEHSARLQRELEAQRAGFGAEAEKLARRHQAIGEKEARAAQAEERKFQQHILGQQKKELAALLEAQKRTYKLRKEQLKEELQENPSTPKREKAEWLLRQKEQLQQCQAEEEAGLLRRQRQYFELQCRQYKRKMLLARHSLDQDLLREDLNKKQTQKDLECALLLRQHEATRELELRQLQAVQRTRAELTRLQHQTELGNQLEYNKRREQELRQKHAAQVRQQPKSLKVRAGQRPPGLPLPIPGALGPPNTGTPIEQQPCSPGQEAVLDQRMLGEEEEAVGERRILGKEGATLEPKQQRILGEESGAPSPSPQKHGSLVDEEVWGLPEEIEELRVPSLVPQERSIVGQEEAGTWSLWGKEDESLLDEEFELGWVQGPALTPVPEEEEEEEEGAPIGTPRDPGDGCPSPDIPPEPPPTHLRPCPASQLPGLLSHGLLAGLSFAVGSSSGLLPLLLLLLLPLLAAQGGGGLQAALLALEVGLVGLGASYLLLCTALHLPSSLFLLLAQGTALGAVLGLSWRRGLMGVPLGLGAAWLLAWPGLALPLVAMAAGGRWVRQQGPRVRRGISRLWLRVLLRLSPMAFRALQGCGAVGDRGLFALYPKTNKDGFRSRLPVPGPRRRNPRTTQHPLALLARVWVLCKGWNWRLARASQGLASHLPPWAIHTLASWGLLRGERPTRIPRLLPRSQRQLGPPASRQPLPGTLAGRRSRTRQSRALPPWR

IC50 [1] | IC50 [2] | IC50 [3] | Compound
0.5 to 5 µM | 0.5 to 5 µM | > 5 µM | N-˜2˜-({[4-(1,1-dimethylethyl)phenyl]oxy}acetyl)-N-(1,2,3,4-tetrahydronaphthalen-1-yl)glycinamide [Entry 33]
0.05 to 0.5 µM | 0.05 to 0.5 µM | 0.05 to 0.5 µM | O=C(CNC(=O)c1ccc(Oc2ccccc2)cc1)NC1CCCc2ccccc21 (stereo not drawn) [Entry 49, N-[2-oxo-2-(1,2,3,4-tetrahydronaphthalen-1-ylamino)ethyl]-4-(phenyloxy)benzamide]
0.05 to 0.5 µM | 0.05 to 0.5 µM | 0.5 to 5 µM | CC(NC(=O)c1ccc(OCc2ccccc2)cc1)C(=O)NC1CCc2ccccc2C1 (stereo not drawn) [Entry 19, N-[1-methyl-2-oxo-2-(1,2,3,4-tetrahydronaphthalen-2-ylamino)ethyl]-4-[(phenylmethyl)oxy]benzamide]
> 5 µM | > 5 µM | > 5 µM | Cc1csc(NC(=O)CNC(=O)CC(NC(=O)c2ccccc2)c2ccccc2)n1 (stereo not drawn) [Entry 93, N-[3-({2-[(4-methyl-1,3-thiazol-2-yl)amino]-2-oxoethyl}amino)-3-oxo-1-phenylpropyl]benzamide]
0.5 to 5 µM | 0.05 to 0.5 µM | 0.5 to 5 µM | O=C(CNC(=O)c1ccc(N2CCCCC2)cc1)NC1CCCc2ccccc21 (stereo not drawn) [Entry 77, N-[2-oxo-2-(1,2,3,4-tetrahydronaphthalen-1-ylamino)ethyl]-4-piperidin-1-ylbenzamide]
0.05 to 0.5 µM | 0.05 to 0.5 µM | 0.5 to 5 µM | O=C(CNC(=O)COc1ccc(Br)cc1)NCc1ccc(Cl)c(Cl)c1 [Entry 25, N˜2˜-{[(4-bromophenyl)oxy]acetyl}-N-[(3,4-dichlorophenyl)methyl]glycinamide]
> 5 µM | > 5 µM | > 5 µM | CCc1ccc(-c2ccc(C(=O)NCC(=O)NCC3COc4ccccc4O3)cc2)cc1 (stereo not drawn) [Entry 65, N-{2-[(2,3-dihydro-1,4-benzodioxin-2-ylmethyl)amino]-2-oxoethyl}-4′-ethylbiphenyl-4-carboxamide]
> 5 µM | > 5 µM | > 5 µM | CCc1ccc(-c2ccc(C(=O)NCC(=O)N3Cc4ccccc4C3)cc2)cc1 [Entry 57, N-[2-(1,3-dihydro-2H-isoindol-2-yl)-2-oxoethyl]-4′-ethylbiphenyl-4-carboxamide]
0.5 to 5 µM | 0.05 to 0.5 µM | 0.5 to 5 µM | O=C(CNC(=O)c1ccc2ncccc2c1)NC1CCCc2ccccc21 (stereo not drawn) [Entry 80, N-[2-oxo-2-(1,2,3,4-tetrahydronaphthalen-1-ylamino)ethyl]quinoline-6-carboxamide]
> 5 µM | 0.5 to 5 µM | > 5 µM | O=C(COc1ccc(Cl)cc1)NCC(=O)NC1CCCc2ccccc21 (stereo not drawn) [Entry 34, N˜2˜-{[(4-chlorophenyl)oxy]acetyl}-N-(1,2,3,4-tetrahydronaphthalen-1-yl)glycinamide]
0.05 to 0.5 µM | 0.05 to 0.5 µM | 0.5 to 5 µM | COc1ccc2nc(NC(=O)CCCNC(=O)Cn3cnc4sc5c(c4c3=O)CCCC5)sc2c1 [Entry 23, N-[6-(methyloxy)-1,3-benzothiazol-2-yl]-4-{[(4-oxo-5,6,7,8-tetrahydro[1]benzothieno[2,3-d]pyrimidin-3(4H)-yl)acetyl]amino}butanamide]
> 5 µM | > 5 µM | > 5 µM | CCc1ccc(-c2ccc(C(=O)NCC(=O)NCCc3ccccc3)cc2)cc1 [Entry 75, 4′-ethyl-N-{2-oxo-2-[(2-phenylethyl)amino]ethyl}biphenyl-4-carboxamide]
> 5 µM | > 5 µM | > 5 µM | COc1ccc2nc(NC(=O)CNC(=O)CCNC(=O)c3ccccc3)sc2c1 [Entry 85, N-(phenylcarbonyl)-beta-alanyl-N-[6-(methyloxy)-1,3-benzothiazol-2-yl]glycinamide]
0.5 to 5 µM | 0.5 to 5 µM | > 5 µM | O=C(CNC(=O)c1ccc2ccccc2c1)NC1CCCc2ccccc21 (stereo not drawn) [Entry 44, N-[2-oxo-2-(1,2,3,4-tetrahydronaphthalen-1-ylamino)ethyl]naphthalene-2-carboxamide]
< 0.05 µM | < 0.05 µM | < 0.05 µM | COc1ccc2nc(NC(=O)COC(=O)CC(NC(=O)c3ccccc3)c3ccccc3)sc2c1 (stereo not drawn) [Entry 37, 2-{[6-(methyloxy)-1,3-benzothiazol-2-yl]amino}-2-oxoethyl 3-phenyl-3-[(phenylcarbonyl)amino]propanoate]
> 5 µM | 0.5 to 5 µM | > 5 µM | O=C(CNC(=O)c1ccc(N2CCOCC2)cc1)NC1CCCc2ccccc21 (stereo not drawn) [Entry 58, 4-morpholin-4-yl-N-[2-oxo-2-(1,2,3,4-tetrahydronaphthalen-1-ylamino)ethyl]benzamide]
0.05 to 0.5 µM | < 0.05 µM | 0.5 to 5 µM | COc1ccc(/C=C/C(=O)N2Cc3[nH]cnc3CC2C(=O)NCCc2cccc(Cl)c2)cc1OC (stereo not drawn) [Entry 15, 5-{(2E)-3-[3,4-bis(methyloxy)phenyl]prop-2-enoyl}-N-[2-(3-chlorophenyl)ethyl]-4,5,6,7-tetrahydro-3H-imidazol[4,5-c]pyridine-6-carboxamide]
> 5 µM | > 5 µM | > 5 µM | CCc1ccc(-c2ccc(C(=O)NCC(=O)NCc3ccccc3)cc2)cc1 [Entry 52, 4-ethyl-N-{2-oxo-2-[(phenylmethyl)amino]ethyl}biphenyl-4-carboxamide]
0.05 to 0.5 µM | 0.05 to 0.5 µM | 0.05 to 0.5 µM | CCCCCCc1ccc(C(=O)NCC(=O)NC2CCCc3ccccc32)cc1 (stereo not drawn) [Entry 10, 4-hexyl-N-[2-oxo-2-(1,2,3,4-tetrahydronaphthalen-1-ylamino)ethyl]benzamide]
0.05 to 0.5 µM | 0.05 to 0.5 µM | 0.05 to 0.5 µM | O=C(CNC(=O)c1ccc(C2CCCCC2)cc1)NC1CCCc2ccccc21 (stereo not drawn) [Entry 50, 4-cyclohexyl-N-[2-oxo-2-(1,2,3,4-tetrahydronaphthalen-1-ylamino)ethyl]benzamide]
> 5 µM | > 5 µM | > 5 µM | CCc1ccc(-c2ccc(C(=O)NCC(=O)Nc3nc4ccc(OC)cc4s3)cc2)cc1 [Entry 64, 4′ethyl-N-(2-{[6-(methyloxy)-1,3-benzothiazol-2-yl]amino}-2-oxoethyl)biphenyl-4-carboxamide]
0.5 to 5 µM | 0.05 to 0.5 µM | 0.5 to 5 µM | O=C(CNC(=O)c1ccc(-n2ccnc2)cc1)NC1CCCc2ccccc21 (stereo not drawn) [Entry 70, 4-(1H-imidazol-1-yl)-N-[2-oxo-2-(1,2,3,4-tetrahydronaphthalen-1-ylamino)ethyl]benzamide]
